Consider 26 compounds from patent publication US20070293530A1, “SULFAMIDE AND SULFAMATE DERIVATIVES AS HISTONE DEACETYLASE INHIBITORS” (METHYLGENE INC., priority 2006, published 2007).

pIC50: −log10 of the molar value.

Broadly, the pIC50 is the negative decadic logarithm of the IC50, by convention in mol/L. Low readings indicate a large IC50, high ones a small IC50.

This experiment deals with HDAC enzyme. The experiment is described as follows: Inhibition of Histone Deacetylase Enzymatic Activity (Assay Examples 1 and 2). It is filed as biochemical. Particulars: HDAC isoform not specified; fluorogenic Boc-Lys(Ac)-AMC or Boc-Lys(trifluoroacetyl)-AMC substrate. How it is done: The following protocol is used to assay the compounds of the invention. In the assay, the buffer used is 25 mM HEPES, pH 8.0, 137 mM NaCl, 2.7 mM KCl, 1 mM MgCl2 and the subtrate is Boc-Lys(Ac)-AMC in a 50 mM stock solution in DMSO. The enzyme stock solution is 4.08 μg/mL in buffer.
The compounds are pre-incubated (2 μl in DMSO diluted to 13 μl in buffer for transfer to assay plate) with enzyme (20 μl of 4.08 μg/ml) for 10 minutes at room temperature (35 μl pre-incubation volume). The mixture is pre-incubated for 5 minutes at room temperature. The reaction is started by bringing the temperature to 37° C. and adding 16 μl substrate. Total reaction volume is 50 μl. The reaction is stopped after 20 minutes by addition of 50 μl developer, prepared as directed by Biomol (Fluor-de-Lys developer, Cat. #KI-105). A plate is incubated in the dark for 10 minutes at room temperature before reading (λEx=360 nm, λEm=470 nm, Cutoff filter at 435 nm).
Alternatively, HDAC inhibitory activity was determined using the following assay.
A 30 mM stock of Boc-Lys(trifluoroacetyl)-AMC substrate is prepared in DMSO. 2 μL of test compound in DMSO is diluted to 50 μL in buffer (25 mM HEPES, pH 8.0, 137 mM NaCl, 2.7 mM KCl, 1 mM MgCl2, 0.1% BSA) and pre-incubated with HDAC enzyme (30 μL of a final enzyme concentration of 0.1-0.2 nM) for 10 minutes at room temperature. Reaction is started by adding 18 μL Boc-Lys(trifluoroacetyl)-AMC substrate and incubating at 37° C. for 20-30 minutes. The reaction is stopped by adding 50 μL trypsin (1 mg/mL) and a known HDAC inhibitor (such as LAQ-824). The plate is then incubated in the dark for 20 minutes at room temperature and read with Ex=360 nm, Em=470 nm, cutoff filter at 435 nm.
In the table, A≦0.2 μM; 0.2 μM<B≦0.5 μM; […]; and 1 μM<D≦6 μM.

Compound `NS(=O)(=O)NCCCCCC(=O)Nc1cccc(-c2ccccc2)c1` [Compound 4, N-(Biphenyl-3-yl)-6-(sulfamoylamino)hexanamide] had a pIC50 of at least 6.70.

`CC(=O)N[C@@H](CCCCNS(N)(=O)=O)C(=O)Nc1cccc2cccnc12` [Compound 34, (S)-2-Acetamido-N-(quinolin-8-yl)-6-(sulfamoylamino)hexanamide]: the pIC50 is at least 6.70.

In turn, `COc1cc(NC(=O)CCCCCNS(N)(=O)=O)c2ncccc2c1` [Compound 40, N-(6-methoxy-quinolin-8-yl)-6-(sulfamoyl-amino)-hexanamide] had a pIC50 of at least 6.70.

`NS(=O)(=O)NCCCC[C@H](NC(=O)c1cc2ccccc2o1)C(=O)Nc1cccc2cccnc12` [Compound 51, (S)-N-(1-oxo-1-(quinolin-8-ylamino)-6-(sulfamoyl-amino)-hexan-2-yl)-benzofuran-2-carboxamide] had a pIC50 of 6.30 to 6.70.

For the compound `NS(=O)(=O)NCCCC[C@H](NC(=O)OCc1ccccc1)C(=O)Nc1cccc2cccnc12` [Compound 55, (S)-benzyl 1-oxo-1-(quinolin-8-ylamino)-6-(sulfamoyl-amino)-hexan-2-ylcarbamate], the pIC50 was at least 6.70.

Compound `NS(=O)(=O)NCCCC[C@H](NC(=O)OCc1ccccc1)C(=O)Nc1nc(-c2ccccc2)cs1` [Compound 60, (S)-benzyl 1-oxo-1-(4-phenylthiazol-2-ylamino)-6-(sulfamoyl-amino)-hexan-2-ylcarbamate] gave a pIC50 of at least 6.70.

Compound `COc1ccc2[nH]c(C)c(CC(=O)N[C@@H](CCCCNS(N)(=O)=O)C(=O)Nc3cccc4cccnc34)c2c1` [Compound 62, (S)-2-(2-(5-methoxy-2-methyl-1H-indol-3-yl)acetamido)-N-(quinolin-8-yl)-6-(sulfamoyl-amino)-hexanamide] had a pIC50 of 6.30 to 6.70.

Take `NS(=O)(=O)NCCCCCC(=O)Nc1cc(OCc2ccccn2)cc2cccnc12` [Compound 79, N-(6-(pyridin-2-ylmethoxy)-quinolin-8-yl)-6-(sulfa-moylamino)-hexanamide]: the pIC50 was at least 6.70.

`COc1ccc(S(=O)(=O)N[C@@H](CCCCNS(N)(=O)=O)C(=O)Nc2cccc3cccnc23)cc1OC` [Compound 201, (S)-2-(3,4-dimethoxyphenylsulfonamido)-N-(quinolin-8-yl)-6-(sulfamoylamino)hexanamide] gave a pIC50 of 6.30 to 6.70.

`NS(=O)(=O)NCCCC[C@H](NC(=O)NCc1ccccc1)C(=O)Nc1cccc2cccnc12` [Compound 203, (S)-2-(3-benzylureido)-N-(quinolin-8-yl)-6-(sulfamoylamino)hexanamide] gave a pIC50 of 6.30 to 6.70.

Compound `COc1ccc(C(=O)N[C@@H](CCCCNS(N)(=O)=O)C(=O)Nc2cccc3cccnc23)cc1OC` [Compound 207, (S)-3,4-dimethoxy-N-(1-oxo-1-(quinolin-8-ylamino)-6-(sulfamoyl-amino)hex-an-2-yl)-benzamide] gave a pIC50 of 6.30 to 6.70.

With `NS(=O)(=O)NCCCC[C@H](NC(=O)c1cccc2cccnc12)C(=O)Nc1cccc2cccnc12` [Compound 209, (S)-N-(1-oxo-1-(quinolin-8-ylamino)-6-(sulfamoyl-amino)hex-an-2-yl)-quinoline-8-carboxamide], the pIC50 is 6.30 to 6.70.

Compound `NS(=O)(=O)NCCCC[C@H](NC(=O)Nc1ccccc1)C(=O)Nc1cccc2cccnc12` [Compound 211, (S)-2-(3-phenyl-ureido)-N-(quinolin-8-yl)-6-(sulfa-moylamino)-hexanamide] gave a pIC50 of at least 6.70.

Compound `NS(=O)(=O)NCCCC[C@H](NC(=O)Cc1ccccc1)C(=O)Nc1nc(-c2ccccc2)cs1` [Compound 230a, (S)-2-(2-phenylacetamido)-N-(4-phenylthiazol-2-yl)-6-(sulfamoylamino)hexanamide] gave a pIC50 of at least 6.70.

As to `NS(=O)(=O)NCCCC[C@H](NC(=O)NCc1ccc(F)cc1)C(=O)Nc1nc(-c2ccccc2)cs1` [Compound 240, (S)-2-(3-(4-fluoro-benzyl)-ureido)-N-(4-phenyl-thiazol-2-yl)-6-(sulfa-moylamino)-hexanamide], the pIC50 was 6.30 to 6.70.

With `NS(=O)(=O)NCCCC[C@H](NC(=O)OCc1cccc(Cl)c1)C(=O)Nc1nc(-c2ccccc2)cs1` [Compound 242, (S)-3-chlorobenzyl 1-oxo-1-(4-phenyl-thiazol-2-ylamino)-6-(sulfa-moylamino)-hexan-2-ylcarbamate], the pIC50 was at least 6.70.

With `CCOC(=O)N[C@@H](CCCCNS(N)(=O)=O)C(=O)Nc1nc(-c2ccccc2)cs1` [Compound 252, (S)-ethyl 1-oxo-1-(4-phenylthiazol-2-ylamino)-6-(sulfamoylamino)hexan-2-ylcarbamate], the pIC50 was 6.30 to 6.70.

`COc1cc(NC(=O)[C@H](CCCCNS(N)(=O)=O)NC(=O)OCc2ccccc2)c2ncccc2c1` [Compound 270, (S)-benzyl 1-(6-methoxy-quinolin-8-ylamino)-1-oxo-6-(sulfamoyl-amino)-hexan-2-ylcarbamate] showed a pIC50 of at least 6.70.

Compound `NS(=O)(=O)NCCCC[C@H](NC(=O)OCc1ccccc1)C(=O)Nc1cnc2ccccc2c1` [Compound 274, (S)-benzyl 1-oxo-1-(quinolin-3-ylamino)-6-(sulfamoyl-amino)-hexan-2-ylcarbamate] showed a pIC50 of at least 6.70.

`COc1ccc(-c2nc(NC(=O)[C@H](CCCCNS(N)(=O)=O)NC(=O)OCc3ccccc3)sc2C)cc1` [Compound 289, (S)-benzyl 1-(4-(4-methoxy-phenyl)-5-methyl-thiazol-2-ylamino)-1-oxo-6-(sulfamoyl-amino)-hexan-2-ylcarbamate] showed a pIC50 of 6.30 to 6.70.

In turn, `NS(=O)(=O)NCCCC[C@H](NC(=O)OCc1ccccc1)C(=O)Nc1nc(-c2ccc(C(F)(F)F)cc2)cs1` [Compound 308, (S)-benzyl 1-oxo-6-(sulfamoyl-amino)-1-(4-(4-(trifluoro-methyl)-phenyl)-thiazol-2-ylamino)-hexan-2-ylcarbamate] had a pIC50 of at least 6.70.

Compound `COc1cccc(-c2csc(NC(=O)[C@H](CCCCNS(N)(=O)=O)NC(=O)OCc3ccccc3)n2)c1` [Compound 309, (S)-benzyl 1-(4-(3-methoxy-phenyl)-thiazol-2-ylamino)-1-oxo-6-(sulfamoyl-amino)-hexan-2-ylcarbamate] showed a pIC50 of 6.30 to 6.70.

Consider `NS(=O)(=O)NCCCC[C@H](NC(=O)OCc1ccccc1)C(=O)Nc1cccc(-c2ccccc2)c1` [Compound 310, (S)-benzyl 1-(biphenyl-3-ylamino)-1-oxo-6-(sulfamoyl-amino)-hexan-2-ylcarbamate], for which the pIC50 was at least 6.70.

The compound `NS(=O)(=O)NCCCC[C@H](NC(=O)OCc1ccccc1)C(=O)Nc1nc(C(=O)Nc2ccccc2)cs1` [Compound 313, (S)-benzyl 1-oxo-1-(4-(phenyl-carbamoyl)-thiazol-2-ylamino)-6-(sulfamoyl-amino)-hexan-2-ylcarbamate] had a pIC50 of at least 6.70.

`COc1ccc(NC(=O)c2csc(NC(=O)[C@H](CCCCNS(N)(=O)=O)NC(=O)OCc3ccccc3)n2)cc1` [Compound 314, (S)-benzyl 1-(4-(4-methoxy-phenyl-carbamoyl)-thiazol-2-ylamino)-1-oxo-6-(sulfamoyl-amino)-hexan-2-ylcarbamate] showed a pIC50 of at least 6.70.

`NS(=O)(=O)NCCCC[C@H](NC(=O)OCc1ccccc1)C(=O)Nc1nc(-c2ccc(F)cc2)cs1` [Compound 318, (S)-benzyl 1-(4-(4-fluoro-phenyl)-thiazol-2-ylamino)-1-oxo-6-(sulfamoyl-amino)-hexan-2-ylcarbamate] gave a pIC50 of 6.30 to 6.70.
